Test results published in patent US7618953B2, “Amorphous forms of risedronate monosodium” (Zentiva, a.s., priority 2004, dated 2009).
Where a name gives a salt, the structure may show the parent alone.

Columns and labels:
[1] = format: physicochemical; conditions: for time until a transparent solution was formed: 0.796 mmol in 100 ml stirred aqueous hydrochloric acid, pH 1.1, 40° C.
Procedure: Dissolution of Sodium Risedronate in Diluted Hydrochloric Acid
a) 0.273 g (0.796 mmol) of sodium risedronate pentahemihydrate (crystalline form A) according to WO 01/56983, having the water content 12.5%, was introduced into 100 ml of stirred aqueous solution of hydrochloric acid at pH 1.1 and temperature of 40° C. Within 30 seconds a transparent solution was formed.
b) 0.250 g (0,796 mmol) of semi-crystalline sodium risedronate according to Example 2 above, having the water content 3%, was introduced into 100 ml of stirred aqueous solution of hydrochloric acid at pH 1.1 and temperature of 40° C. Within less than 30 seconds a quite transparent solution was formed.

physchem = conditions: 22 °C, water, thermodynamic from solid
[2] = Water content after storage on the open air; format: physicochemical; conditions: after one month storage on the open air at laboratory temperature; 1.7% of water when prepared
Procedure: 10 g of crystalline form of risedronate pentahydrate (according to WO 2004/037252) was dried at 110° C. for 20 hours. 8.2 g of the semi-crystalline form of risedronate sodium was obtained, which was characterized with X-ray powder diffraction (FIG. 9), ^13C and ^31P Cp MAS NMR spectra (FIGS. 7 and 8) and IR spectra (FIG. 6). Thus prepared semi-crystalline risedronate contained 1.7% of water. After one month storage on the open air at laboratory temperature the content of water increased to 3%.

[3] = 0.200 g suspended in 2 ml water at 22° C., water added dropwise at 0.2 ml/min until transparent solution

## O=P(O)(O)C(O)(Cc1cccnc1)P(=O)(O)O [Example 2, monosodium salt of 3-pyridyl-1-hydroxyethylidene-1,1-bisphosphonic acid]
[1]
  time until a transparent solution was formed: less than 30 seconds
[1]; aqueous hydrochloric acid pH 1.1, 40° C., stirred for further 15 mins
  precipitation on further stirring under constant conditions: without any observable precipitation
physchem
  solubility: 255 mM
[2]
  content of water after storage: 3%
[3]
  total consumption of water for dissolution of the sample: 2.5 mL

## O.O.O.O.O.O=P([O-])(O)C(O)(Cc1cccnc1)P(=O)(O)O.O=P([O-])(O)C(O)(Cc1cccnc1)P(=O)(O)O.[Na+].[Na+] [sodium risedronate pentahemihydrate, reference compound]
[1]
  time until a transparent solution was formed: ≤ 30 s
[1]; pH 1.1
  time after formation of the transparent solution until a white suspension of poorly soluble risedronic acid started to precipitate: ≤ 20 s
[3]
  total consumption of water for dissolution of the sample: 3.5 mL
